SMILES strings stand for the structures. ≈ marks a conversion by molar mass, not a printed value.

The target of assay [1] is porcine pancreatic elastase (Sus scrofa, UniProt P00772).
Description: Elastase inhibition assay was performed as described previously with some modifications[32]. Briefly, in Nunc-96 well microtiter plates, 20-µL aliquots of 0.8-units/mL PPE in Trizma® base buffer (pH 8.0) were mixed with 20-µL samples, and the mixtures were then diluted to 180 µL in Trizma® base buffer. Test extracts were preincubated with enzyme for 15 min, and 20-μL aliquots of the substrate N-succinyl-Ala-Ala-Ala-p-nitroanilide (A3PVN; 2.9 mM) were added and incubated for another 15 min. Positive control and blank wells contained oleanolic acid and water, respectively. Experiments were conducted in triplicate, and inhibition rates were determined according to absorbance at 401 nm using a VersaMax microplate reader.
Percentage inhibition was calculated using the following equation: Elastase inhibition%=1-T-Tb/E-Eb×100, where E is the absorbance of the enzyme reaction, Eb is the absorbance of the enzyme blank, T is the absorbance of the test sample, and Tb is the absorbance of the test blank.
The next assay has as its system mushroom tyrosinase. Kind of assay: Tyrosinase inhibition assay (DOPA-chrome formation method). It counts as biochemical, Agaricus bisporus. The protocol: Tyrosinase inhibition was determined using the DOPA-chrome formation method as described previously with slight modifications. […] They were preincubated for 10 min at room temperature. Reactions were initiated by adding 4 μL aliquots of 10 mM L-DOPA to each well and incubating at 37 °C for 20 min. Tyrosinase activity was then determined by measuring absorbance at 475 nm. […] Experiments were performed in triplicate.

In a further assay the target is elastase. The conditions noted are these: cited from earlier work.

Sequence of porcine pancreatic elastase (P00772 27-266): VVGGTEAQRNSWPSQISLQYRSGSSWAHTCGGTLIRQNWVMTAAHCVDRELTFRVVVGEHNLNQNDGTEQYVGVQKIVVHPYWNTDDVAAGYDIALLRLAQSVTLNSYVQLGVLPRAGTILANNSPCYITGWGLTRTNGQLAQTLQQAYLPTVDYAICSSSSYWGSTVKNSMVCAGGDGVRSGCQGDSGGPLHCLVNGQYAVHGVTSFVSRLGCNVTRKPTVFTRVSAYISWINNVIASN

`C[C@@H]1CC[C@]2(C(=O)O)CCC3(C)C(=CCC4C3(C)CCC3C(C)(C(=O)O)[C@H]5OCCO[C@@H]5C[C@@]34C)C2[C@]1(C)O` (stereo partly shown) [Compound 1, 2,3-O-ethylene glycol, 19-hydroxyurs-12-en-23,28-dioic acid] had an IC50 in assay [1] of 224 µM. In the assay on mushroom tyrosinase, the “Activity as tyrosinase inhibitors (in words)” value is reported as “moderate activities” and the IC50 tyrosinase inhibition is 207.79 µg/mL (≈ 381 µM).

As to `C[C@H]1[C@H](C)CC[C@]2(C(=O)O)CC[C@]3(C)C(=CC[C@@H]4[C@@]5(C)CC[C@H](O)C(C)(C)[C@@H]5CC[C@]43C)[C@H]12` [ursolic acid], the “IC50 elastase inhibition (previous studies)” value on elastase was 31.0 µg/mL (≈ 67.9 µM).

Consider `C[C@@H]1CC[C@]2(C(=O)O)CCC3(C)C(=CCC4C3(C)CCC3C(C)(C)[C@H]5OCCCO[C@@H]5C[C@@]34C)C2[C@]1(C)O` (stereo partly shown) [Compound 2, 2,3-O-Propanediol, 19-hydroxyurs-12-en-28-oic acid], for which the midpoint of inhibition in assay [1], the IC50, lay at 186 µM. For the same compound, in the assay on mushroom tyrosinase, the “Activity as tyrosinase inhibitors (in words)” value was “moderate activities” and the IC50 tyrosinase inhibition was 221.51 µg/mL (≈ 419 µM).

A word on the IC50: it is the concentration that gives 50% inhibition. High values mean lower potency, low ones higher potency.
